# From the NIST ThermoML archive (doi:10.1016/j.jct.2013.07.011)
# Numbers after ± are expanded uncertainties.
# Settings: 298.15 K; 101.33 kPa; Liquid; Vibrating tube method
row,mass density [kg/m3],SMILES
1,873.57 ± 0.11,c1ccccc1 [benzene]
2,713.99 ± 0.32,CCCCCCCCC [nonane]
3,698.6 ± 0.23,CCCCCCCC [octane]
4,1212.59 ± 4,CCCCn1cc[n+](C)c1.COS(=O)(=O)[O-] [1-butyl-3-methylimidazolium methyl sulfate]
5,831.47 ± 0.3,C1CCCCCCC1 [cyclooctane]

row,SMILES,mass density [kg/m3]
1,CCCC[n+]1ccn(C)c1.O=S(=O)([N-]S(=O)(=O)C(F)(F)F)C(F)(F)F,1436.35 ± 4
2,Cc1ccccc1 [toluene],862.17 ± 0.11
